The source of these data is US9120249B2, “Implant device release agents and methods of using same” (ENDO PHARMACEUTICALS SOLUTIONS INC., priority 2007, dated 2015).

Series [1] is described as follows: Tensile strength of gamma irradiated cartridges, initially and after storage at 37° C. The format is physicochemical. The settings on record: initially after irradiation and after 3 and 8 months storage at 37° C. Here is the method:
Approximately 15-20 cartridges of each formulation were prepared and gamma irradiated at 10-11 kGy. The tensile strength of five cartridges from each formulation was measured initially. The remaining cartridges were stored at 37° C. and tested for tensile strength again at 3 and 8 months.

For series [2] the following is noted: cited from earlier work; for CMC: critical micelle concentration; for HLB: hydrophilic-lipophilic balance.

For the compound `O=C1O[C@H]([C@@H](O)CO)C(O)=C1O` [Ascorbic acid, ascorbic acid], the “tensile strength of cartridges, in words” value in series [1] is on record as “seems to be effective as well”. Turning to Triton X-100, in series [2], the CMC is 0.2 to 0.9 mM and the HLB is 13.5. As to Sucrose monolaurate, in series [2], the CMC is 0.2 mM and the HLB is on record as ~8. `CCCCCCCC/C=C\CCCCCCCC(=O)OCCOCC(OCCO)C1OCC(OCCO)C1OCCO` (stereo not shown) [Tween 80]: in series [2], the CMC is 0.012 mM and the HLB is recorded as 15.
